This note sets out measurements from paper PMC6713165, “Identification of 1H-pyrazolo[3,4-b]pyridine derivatives as potent ALK-L1196M inhibitors” (Journal of Enzyme Inhibition and Medicinal Chemistry, 2019).

By IC50 is commonly meant the midpoint of a concentration-inhibition curve. One may read the efflux ratio as the permeability from basolateral to apical divided by that in the opposite direction, in the common usage. As a reminder, the Papp B→A is how fast a substance crosses the layer from the basolateral side.

One series has as its target ALK-wt (Homo sapiens, UniProt Q9UM73). Put plainly: Radiometric biochemical kinase assay, ALK-wt. The note with it: radiometric kinase assay, 10 µM ATP; for IC50: read-out: IC50 ALK-wt. Here is the method:
(§1) Biochemical kinase assay was performed by methods previously reported. Kinase reactions of all test compounds except 10g were carried out at 10 µM ATP. Kinase reaction of 10g was performed at three different concentrations of ATP (10/50/100 µM).

For another series, the system named is Parental Ba/F3 cells. The series is described as follows: Anti-proliferation assay (CTG), parental Ba/F3. The format is cell-based. The following applies: with IL-3, mean ± SD of three independent experiments; for GI50 Ba/F3 cell lines Parental: 72 h; for GI50: Mus musculus, BaF3, 72 h, read-out: GI50 Ba/F3 cell lines Parental. Here is the method:
(§2) ALK wt-TEL, ALK L1196M-TEL transformed Ba/F3 and H2228 cell lines were cultured in RPMI1640 (Welgene, # LM011-01). […] Parental Ba/F3 cells were cultured in RPMI1640 media supplemented with 10% foetal bovine serum and 1% penicillin/streptomycin solution in the presence of IL-3. The cells were maintained in a humidified atmosphere containing 5% CO2 at 37 °C.
(§3) Cells (ALK wt-TEL, ALK L1196M-TEL and Parental Ba/F3: 1 × 10^4, H2228: 5 × 10^3) were plated in 96 well tissue culture plates. Each compound was added to each well at 10 dose points of three-fold serial dilution in DMSO. After treatment with each compound for 72 h, CTG assay solution (Promega, # G7572) was added to each well.

Another series concerns H2228 (EML4-ALK) cells. Put plainly: Anti-proliferation assay (CTG), H2228. The format is cell-based. The following applies: mean ± SD of three independent experiments; for GI50 H2228 (EML4-ALK): 72 h; for GI50: Homo sapiens, NCI-H2228, 72 h. Here is the method:
as §2, §3

Series [1] relates to ALK L1196M-TEL Ba/F3 cells. Put plainly: Anti-proliferation assay (CTG), ALK L1196M-TEL Ba/F3. It counts as cell-based. The following applies: for GI50: Mus musculus, BaF3, read-out: GI50 Ba/F3 cell lines ALKL1196M-TEL; for differential cytotoxicity against ALK-L1196M Ba/F3 cells vs. parental Ba/F3 cells compared with crizotinib: in words. Here is the method: as §2, §3
The next series has as its target ALK-L1196M (Homo sapiens, UniProt Q9UM73, L1196M). Put plainly: Radiometric biochemical kinase assay, ALK-L1196M. The note with it: for IC50: radiometric kinase assay, 10 µM ATP. Here is the method: as §1
The next series relates to ALK wt-TEL Ba/F3 cells. Put plainly: Anti-proliferation assay (CTG), ALK wt-TEL Ba/F3. It counts as cell-based. The note with it: 72 h, CTG, mean ± SD of three independent experiments; for GI50: Mus musculus, BaF3, read-out: GI50 Ba/F3 cell lines ALK wt-TEL. Here is the method: as §2, §3
Series [2] can be described thus: Permeability assessment using Caco-2 cells. It counts as in vitro ADME, human. The following applies: human; for efflux ratio at 120 min, 10 µM / Papp B→A at 120 min, 10 µM: Caco-2, 10 µM. Here is the method: (§4) Stock solutions (10 mM) of reference compounds and 10g were diluted to a concentration of 10 µM with the transport buffer (HBSS + 1%BSA) and the test compounds were applied to the apical or basolateral side of the cell monolayer. […] In addition, the efflux ratio of each compound was also determined. Reference compounds and 10g were quantified by LC-MS/MS analysis based on the peak area ratio of analyte/the internal standard.
A general note: Caco-2 cells form a polarised layer with tight junctions and transporters.

The subject of a further series is Caco-2 cells. Put plainly: Permeability assessment using Caco-2 cells. It counts as in vitro ADME, human. The note with it: P-gp substrate status from efflux ratio. Here is the method: as §4
Where [3] appears, read: 72 h, CTG, mean ± SD of three independent experiments.
[4] abbreviates: Caco-2, Caco-2, 10 µM, 120 min, 37 °C, HBSS + 1%BSA, read-out: Mean Papp A to B.
Setting [5] is: Caco-2, Caco-2, 10 µM, 120 min, read-out: Mean recovery % A to B.
The mark [6] stands for this setting: Caco-2, Caco-2, 10 µM, 120 min, read-out: Mean recovery % B to A.
Where [7] appears, read: Caco-2, Caco-2 permeability class from Papp (A to B), read-out: Rank Papp.

Where two headings read alike, the source gives them in different places.

Sequence of ALK-wt (Q9UM73 19-1620): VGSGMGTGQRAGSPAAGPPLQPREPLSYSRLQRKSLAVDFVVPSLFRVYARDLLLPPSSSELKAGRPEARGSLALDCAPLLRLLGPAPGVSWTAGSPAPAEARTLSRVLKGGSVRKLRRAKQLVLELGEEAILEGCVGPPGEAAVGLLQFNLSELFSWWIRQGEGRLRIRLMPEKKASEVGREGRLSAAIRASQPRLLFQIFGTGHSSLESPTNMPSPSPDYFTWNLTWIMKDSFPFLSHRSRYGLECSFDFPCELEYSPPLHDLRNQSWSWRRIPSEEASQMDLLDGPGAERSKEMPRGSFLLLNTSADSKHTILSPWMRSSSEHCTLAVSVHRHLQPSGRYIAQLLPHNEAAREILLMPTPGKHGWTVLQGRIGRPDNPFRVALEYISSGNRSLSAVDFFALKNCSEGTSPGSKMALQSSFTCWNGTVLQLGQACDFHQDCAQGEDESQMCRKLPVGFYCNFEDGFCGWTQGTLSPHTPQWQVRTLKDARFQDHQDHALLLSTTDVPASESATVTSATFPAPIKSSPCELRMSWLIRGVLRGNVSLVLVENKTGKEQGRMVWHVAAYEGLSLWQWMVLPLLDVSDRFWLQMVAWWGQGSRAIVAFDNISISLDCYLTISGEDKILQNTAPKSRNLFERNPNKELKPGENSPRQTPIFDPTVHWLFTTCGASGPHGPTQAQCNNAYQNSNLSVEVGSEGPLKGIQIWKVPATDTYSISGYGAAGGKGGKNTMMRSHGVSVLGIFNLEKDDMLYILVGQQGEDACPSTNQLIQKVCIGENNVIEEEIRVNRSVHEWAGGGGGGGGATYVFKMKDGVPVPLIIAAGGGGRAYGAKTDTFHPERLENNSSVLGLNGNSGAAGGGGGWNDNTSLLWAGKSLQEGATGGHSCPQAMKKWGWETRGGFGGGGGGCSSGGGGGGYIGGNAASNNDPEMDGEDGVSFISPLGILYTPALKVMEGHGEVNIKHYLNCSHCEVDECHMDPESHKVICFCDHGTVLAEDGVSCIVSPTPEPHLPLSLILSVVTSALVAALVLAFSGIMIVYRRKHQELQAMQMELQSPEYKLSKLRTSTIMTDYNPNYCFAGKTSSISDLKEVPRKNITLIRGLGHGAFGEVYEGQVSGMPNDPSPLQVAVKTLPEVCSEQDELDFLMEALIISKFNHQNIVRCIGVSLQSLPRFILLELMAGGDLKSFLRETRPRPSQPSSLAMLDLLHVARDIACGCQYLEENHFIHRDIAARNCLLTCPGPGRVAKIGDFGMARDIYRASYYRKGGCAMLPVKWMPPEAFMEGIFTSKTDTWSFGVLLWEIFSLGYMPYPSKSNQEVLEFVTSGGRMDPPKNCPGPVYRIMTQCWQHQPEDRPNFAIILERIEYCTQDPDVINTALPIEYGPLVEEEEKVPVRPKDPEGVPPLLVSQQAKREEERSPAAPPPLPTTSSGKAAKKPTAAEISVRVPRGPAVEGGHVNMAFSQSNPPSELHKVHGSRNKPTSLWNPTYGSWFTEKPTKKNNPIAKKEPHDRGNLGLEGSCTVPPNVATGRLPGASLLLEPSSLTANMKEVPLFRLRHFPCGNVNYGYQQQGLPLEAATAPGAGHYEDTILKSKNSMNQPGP
Sequence of ALK-L1196M (Q9UM73 19-1620 L1196M): as the sequence (Q9UM73 19-1620) above, with L1178M counted along it

With `N#Cc1ccc(C(=O)Nc2n[nH]c3ncc(S(=O)(=O)c4cccc(F)c4)cc23)cc1` [10a, 4-Cyano-N-(5-((3-fluorophenyl)sulfonyl)-1H-pyrazolo[3,4-b]pyridin-3-yl)benzamide], on ALK-wt, the IC50 was 453 nM.

For the molecule `O=C(Nc1n[nH]c2ncc(S(=O)(=O)c3cccc(F)c3)cc12)c1cccc(C(F)(F)F)c1` [10b, N-(5-((3-Fluorophenyl)sulfonyl)-1H-pyrazolo[3,4-b]pyridin-3-yl)-3-(trifluoromethyl)benzamide], the “IC50 ALK-wt” value against ALK-wt is “little to no activity”.

For `O=C(Nc1n[nH]c2ncc(S(=O)(=O)c3cccc(F)c3)cc12)c1ccc(C(F)(F)F)cc1` [10c, N-(5-((3-Fluorophenyl)sulfonyl)-1H-pyrazolo[3,4-b]pyridin-3-yl)-4-(trifluoromethyl)benzamide], the “IC50 ALK-wt” value at ALK-wt is given as “little to no activity”.

For the molecule `COc1ccc(C(=O)Nc2n[nH]c3ncc(S(=O)(=O)c4cccc(F)c4)cc23)cc1` [10d, N-(5-((3-Fluorophenyl)sulfonyl)-1H-pyrazolo[3,4-b]pyridin-3-yl)-4-methoxybenzamide], the “GI50 Ba/F3 cell lines Parental” value in the series with Parental Ba/F3 cells is given as “Inactive”. The “GI50 H2228 (EML4-ALK)” value in the series with H2228 (EML4-ALK) cells is “Inactive”. Also, the IC50 on ALK-wt was found to be 69 nM; on ALK-L1196M, 19 nM. Besides, the “GI50 Ba/F3 cell lines ALKL1196M-TEL” value in series [1] (setting [3]) is recorded as “Inactive”. Besides, the “activity against ALK-L1196M relative to crizotinib” value on ALK-L1196M (IC50 19 nM vs 980 nM of crizotinib) worked out at 50 fold. Also, in the series on ALK wt-TEL Ba/F3 cells, the “GI50 Ba/F3 cell lines ALK wt-TEL” value was “Inactive”.

`CN(C)c1ccc(C(=O)Nc2n[nH]c3ncc(S(=O)(=O)c4cccc(F)c4)cc23)cc1` [10e, 4-(Dimethylamino)-N-(5-((3-fluorophenyl)sulfonyl)-1H-pyrazolo[3,4-b]pyridin-3-yl)benzamide]: the “GI50 Ba/F3 cell lines Parental” value with Parental Ba/F3 cells is reported as “Inactive”. In addition, the GI50 in the series with H2228 (EML4-ALK) cells came out at 8.54 ± 0.78 µM; in series [1] (setting [3]) it was 4550 ± 720 nM; in the series with ALK wt-TEL Ba/F3 cells, 1.77 ± 0.69 µM. Besides, the figures for the IC50 at ALK-wt and at ALK-L1196M were 7.3 nM and 0.7 nM, respectively. Besides, the “differential cytotoxicity against ALK-L1196M Ba/F3 cells vs. parental Ba/F3 cells compared with crizotinib” value (“differential cytotoxicity” below) in series [1] is listed as “higher differential cytotoxicities”.

For the molecule `O=C(Nc1n[nH]c2ncc(S(=O)(=O)c3cccc(F)c3)cc12)c1ccc(N2CCOCC2)cc1` [10f, N-(5-((3-Fluorophenyl)sulfonyl)-1H-pyrazolo[3,4-b]pyridin-3-yl)-4-morpholinobenzamide], the “GI50 Ba/F3 cell lines Parental” value in the series with Parental Ba/F3 cells is “Inactive”. Also, the GI50 was found to be 1.69 ± 0.4 µM with H2228 (EML4-ALK) cells, 2530 ± 1500 nM in series [1] (setting [3]) and 0.916 ± 0.5 µM in the series with ALK wt-TEL Ba/F3 cells. Also, the “IC50 ALK-wt” value against ALK-wt is on record as “Picomolar inhibitory activity”. Moreover, in series [1], the “differential cytotoxicity” value was “higher differential cytotoxicities”. Half-maximal inhibition at ALK-L1196M (IC50) required 1.4 nM.

In the case of `CN1CCN(c2cccc(C(=O)Nc3n[nH]c4ncc(S(=O)(=O)c5cccc(F)c5)cc34)c2)CC1` [10h, N-(5-((3-Fluorophenyl)sulfonyl)-1H-pyrazolo[3,4-b]pyridin-3-yl)-3–(4-methylpiperazin-1-yl)benzamide], the GI50 with Parental Ba/F3 cells amounted to 15.2 ± 0.52 µM; in series [1] (setting [3]), 2280 ± 590 nM; in the series on ALK wt-TEL Ba/F3 cells, 3.35 ± 0.24 µM. Further, in the series on H2228 (EML4-ALK) cells, the “GI50 H2228 (EML4-ALK)” value was “Inactive”. The “differential cytotoxicity” value in series [1] was “higher differential cytotoxicities”.

For the molecule `CS(=O)(=O)Nc1ccc(C(=O)Nc2n[nH]c3ncc(S(=O)(=O)c4cccc(F)c4)cc23)cc1` [13c, N-(5-((3-Fluorophenyl)sulfonyl)-1H-pyrazolo[3,4-b]pyridin-3-yl)-4-(methylsulfonamido)benzamide], in the series with Parental Ba/F3 cells, the “GI50 Ba/F3 cell lines Parental” value was “inactive”. In addition, the GI50 was found to be 9.21 ± 1.92 µM with H2228 (EML4-ALK) cells, 5620 ± 2340 nM in series [1] (setting [3]) and 4.71 ± 3.02 µM with ALK wt-TEL Ba/F3 cells. Moreover, the “differential cytotoxicity” value in series [1] is reported as “higher differential cytotoxicities”.

Take `C[C@H]1O[C@@H](O[C@H]2[C@@H](O)C[C@H](O[C@H]3[C@@H](O)C[C@H](O[C@H]4CC[C@@]5(C)[C@H](CC[C@@H]6[C@@H]5C[C@@H](O)[C@]5(C)[C@@H](C7=CC(=O)OC7)CC[C@]65O)C4)O[C@@H]3C)O[C@@H]2C)C[C@H](O)[C@@H]1O` [Digoxin]: the Papp A→B at 120 min, 10 µM in series [2] (setting [4]) is 0.43 ×10⁻⁶ cm/s; in series [2] (setting [7]) it was under 2.5 ×10⁻⁶ cm/s. Further, the recovery at 120 min, 10 µM in series [2] (setting [5]) came to 96.8%; in series [2] (setting [6]) it was 95.1%. Also, the efflux ratio at 120 min, 10 µM in series [2] (120 min) worked out at 20.2. Also, the Papp B→A at 120 min, 10 µM in series [2] (120 min, 37 °C, HBSS + 1%BSA) was 8.6 ×10⁻⁶ cm/s. Besides, the “Rank P-gp” value in the series on Caco-2 cells is given as “Substrate”.

As for `CC(C)NCC(O)COc1cccc2ccccc12` (centres unmarked) [Propranolol], the Papp A→B at 120 min, 10 µM in series [2] (setting [4]) is 16.1 ×10⁻⁶ cm/s; in series [2] (setting [7]), over 10 ×10⁻⁶ cm/s. Besides, the results for the recovery at 120 min, 10 µM in series [2] (setting [5]) and in series [2] (setting [6]) were 84.8% and 91.7%, respectively. For the same molecule, the efflux ratio at 120 min, 10 µM in series [2] (120 min) worked out at 0.52. In addition, the Papp B→A at 120 min, 10 µM in series [2] (120 min, 37 °C, HBSS + 1%BSA) worked out at 8.42 ×10⁻⁶ cm/s.

Regarding `Nc1ccc(C(=O)Nc2n[nH]c3ncc(S(=O)(=O)c4cccc(F)c4)cc23)cc1` [compound 12, 4-Amino-N-(5-((3-fluorophenyl)sulfonyl)-1H-pyrazolo[3,4-b]pyridin-3-yl)benzamide], the “GI50 Ba/F3 cell lines Parental” value with Parental Ba/F3 cells is recorded as “Inactive”. Moreover, the GI50 in the series on H2228 (EML4-ALK) cells stood at 4.03 ± 1.81 µM; in series [1] (setting [3]), 1980 ± 280 nM; in the series on ALK wt-TEL Ba/F3 cells it was 3.87 ± 1.54 µM. In addition, the “differential cytotoxicity” value in series [1] is “higher differential cytotoxicities”.

Consider `C[C@@H](Oc1cc(-c2cnn(C3CCNCC3)c2)cnc1N)c1c(Cl)ccc(F)c1Cl` [crizotinib, reference compound], for which the GI50 in the series with Parental Ba/F3 cells amounted to 1.65 ± 0.13 µM.
